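Values below derive from 48-hour exposures of cells grown in 96-well plates, with endpoints linearly interpolated between the two concentrations bracketing the appropriate inhibition level. At the TGI there is no net growth.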 Where a SMILES comes first, the peptide text is derived from it. [ ]: non-standard residue; d: D form. pGlu = O=C1CC[CH](C(=O)O)N1
Experiments:
Test in all cases: NCI tumour cell line growth inhibition, 48 h
ACHN renal = test system: ACHN renal
CCRF-CEM leukemia = test system: CCRF-CEM leukemia
EKVX NSCLC = test system: EKVX NSCLC
HL-60(TB) leukemia = test system: HL-60(TB) leukemia
HOP-92 NSCLC = test system: HOP-92 NSCLC
IGROV1 ovarian = test system: IGROV1 ovarian
K-562 leukemia = test system: K-562 leukemia
MDA-MB-231 breast = test system: MDA-MB-231 breast
SF-268 CNS = test system: SF-268 CNS
SNB-75 CNS = test system: SNB-75 CNS
UACC-62 melanoma = test system: UACC-62 melanoma

Row | Structure (SMILES) | TGI (ACHN renal) [µM] | TGI (CCRF-CEM leukemia) [µM] | TGI (EKVX NSCLC) [µM] | TGI (HL-60(TB) leukemia) [µM] | TGI (HOP-92 NSCLC) [µM] | TGI (IGROV1 ovarian) [µM] | TGI (K-562 leukemia) [µM] | TGI (MDA-MB-231 breast) [µM] | TGI (SF-268 CNS) [µM] | TGI (SNB-75 CNS) [µM] | TGI (UACC-62 melanoma) [µM]
1 | COc1ccc(-c2nnc(CCCCCCCCc3nnc(-c4ccc(OC)cc4)n3N)n2N)cc1 | > 100 | > 100 | > 100 | > 100 | > 69.1 | > 100 | > 100 | > 100 | > 100 | > 66.4 | > 100
2 | CC(NC(=O)C(Cc1cnc[nH]1)NC(=O)C1CCC(=O)N1)C(N)=O (stereo not drawn) ([pGlu]-His-Ala-NH2; configuration not given here) | > 100 | > 100 | > 100 | > 100 | > 100 | > 100 | > 100 | > 100 | > 100 | > 100 | > 100
3 | COC(=O)C(Cc1ccccc1)NC(=O)c1ccc(CNC(=S)NCc2cccc(CNC(=S)NCc3ccccc3)c2)cc1 (stereo not drawn) | > 62.5 | > 62.5 | > 62.5 | > 62.5 | > 62.5 | > 62.5 | > 62.5 | > 62.5 | > 62.5 | > 62.5 | > 62.5
4 | CCCCCC(O)(CCCCC)CCCCCCCCC1=C(O)c2ccccc2C(=O)C1=O | > 100 | > 100 | 60.1 | 14 | 33.6 | 26.4 | 21.6 | 32 | 33.7 | > 80.2 | 21.1
5 | CSC1(SC)N2Cc3ccccc3N=C2C1(c1ccccc1)c1ccccc1 | > 100 | > 65 | > 89 | > 53.1 | > 27.3 | > 100 | > 100 | > 100 | > 100 | > 100 | > 55.3
6 | COc1cc(C2c3cc4c(cc3OC3(OC)COC(=O)C23)OCO4)cc(OC)c1OC (stereo not drawn) | > 100 | 3.05 | > 72.1 | 13.6 | > 100 | > 100 | 11 | 2.08 | > 85.6 | > 100 | > 20.5
7 | COc1ccc(CCNC(=O)CCCCCO)cc1OC | > 100 | > 100 | > 100 | > 100 | > 100 | > 100 | > 100 | > 100 | > 100 | > 100 | > 100
8 | NNC(=O)CCC(NS(=O)(=O)c1ccc(Cl)cc1)C(=O)NN (stereo not drawn) | > 100 | > 100 | > 100 | > 100 | > 100 | > 100 | > 100 | > 100 | > 100 | > 100 | > 100

From PubChem BioAssay (NCI)
